Paper PMC11003488 (Journal of Enzyme Inhibition and Medicinal Chemistry, 2023)

Columns and labels:
Format in all cases: cell-based
A549/ATCC = experiment: NCI-60 SRB growth inhibition, one-dose and five-dose; conditions: Homo sapiens, A549, read-out: percent growth inhibition
SF-268 = experiment: as above; conditions: Homo sapiens, SF-268, read-out: percent growth inhibition
SW-620 = experiment: as above; conditions: Homo sapiens, SW-620, read-out: percent growth inhibition
DU-145 = experiment: as above; conditions: Homo sapiens, DU-145, read-out: percent growth inhibition
K-562 = experiment: as above; conditions: Homo sapiens, K562, read-out: percent growth inhibition
LOX IMVI = experiment: as above; conditions: Homo sapiens, read-out: percent growth inhibition
TK-10 = experiment: as above; conditions: Homo sapiens, TK-10, read-out: percent growth inhibition
OVCAR-4 = experiment: as above; conditions: Homo sapiens, OVCAR-4, read-out: percent growth inhibition
HS 578 T = experiment: as above; conditions: Homo sapiens, read-out: percent growth inhibition
IGROV1 = experiment: as above; conditions: Homo sapiens, IGROV-1, read-out: percent growth inhibition
NCI/ADR-RES = experiment: as above; conditions: Homo sapiens, read-out: percent growth inhibition
OVCAR-5 = experiment: as above; conditions: Homo sapiens, OVCAR-5, read-out: percent growth inhibition
A498 = experiment: as above; conditions: Homo sapiens, A498, read-out: percent growth inhibition
NCI-H322M = experiment: as above; conditions: Homo sapiens, read-out: percent growth inhibition
U251 = experiment: as above; conditions: Homo sapiens, U-251, read-out: percent growth inhibition
PC-3 = experiment: as above; conditions: Homo sapiens, PC-3, read-out: percent growth inhibition
SF-539 = experiment: as above; conditions: Homo sapiens, SF-539, read-out: percent growth inhibition
MDA-MB-435 = experiment: as above; conditions: Homo sapiens, MDA-MB-435, read-out: percent growth inhibition
SK-MEL-5 = experiment: as above; conditions: Homo sapiens, SK-MEL-5, read-out: percent growth inhibition
SK-MEL-28 = experiment: as above; conditions: Homo sapiens, SK-MEL-28, read-out: percent growth inhibition
CCRF-CEM = experiment: as above; conditions: Homo sapiens, read-out: percent growth inhibition
NCI-H460 = experiment: as above; conditions: Homo sapiens, NCI-H460, read-out: percent growth inhibition
SK-OV-3 = experiment: as above; conditions: Homo sapiens, SK-OV-3, read-out: percent growth inhibition
RXF 393 = experiment: as above; conditions: Homo sapiens, RXF 393, read-out: percent growth inhibition
NCI-H522 = experiment: as above; conditions: Homo sapiens, NCI-H522, read-out: percent growth inhibition
SF-295 = experiment: as above; conditions: Homo sapiens, SF-295, read-out: percent growth inhibition
HOP-92 = experiment: as above; conditions: Homo sapiens, HOP-92, read-out: percent growth inhibition
786-0 = experiment: as above; conditions: Homo sapiens, 786-0, read-out: percent growth inhibition
NCI-H226 = experiment: as above; conditions: Homo sapiens, NCI-H226, read-out: percent growth inhibition
HOP-62 = experiment: as above; conditions: Homo sapiens, HOP-62, read-out: percent growth inhibition
SR = experiment: as above; conditions: Homo sapiens, read-out: percent growth inhibition
UACC-62 = experiment: as above; conditions: Homo sapiens, UACC-62, read-out: percent growth inhibition
SNB-19 = experiment: as above; conditions: Homo sapiens, SNB-19, read-out: percent growth inhibition
MDA-MB-468 = experiment: as above; conditions: Homo sapiens, MDA-MB-468, read-out: percent growth inhibition
HL-60(TB) = experiment: cells; conditions: Homo sapiens, HL-60, read-out: percent growth inhibition
HT29 = experiment: NCI-60 SRB growth inhibition, one-dose and five-dose; conditions: Homo sapiens, HT-29, read-out: percent growth inhibition
BT-549 = experiment: as above; conditions: Homo sapiens, BT-549, read-out: percent growth inhibition
COLO 205 = experiment: as above; conditions: Homo sapiens, COLO 205, read-out: percent growth inhibition
MALME-3M = experiment: as above; conditions: Homo sapiens, read-out: percent growth inhibition
M14 = experiment: as above; conditions: Homo sapiens, M14, read-out: percent growth inhibition
MOLT-4 = experiment: as above; conditions: Homo sapiens, MOLT-4, read-out: percent growth inhibition
SNB-75 = experiment: as above; conditions: Homo sapiens, SNB-75, read-out: percent growth inhibition

## O=C(/C=C/c1c[nH]cn1)c1cccc(NCc2ccc3oc(=O)ccc3c2)c1 [Compound 5n, (E)-6-(((3–(3-(1H-imidazol-4-yl)acryloyl)phenyl)amino)methyl)-2H-chromen-2-one]
A549/ATCC
  inhibition at 10 µM: 25.6%
SF-268
  inhibition at 10 µM: 10.9%
SW-620
  inhibition at 10 µM: 31.8%
DU-145
  inhibition at 10 µM: 20.9%
K-562
  inhibition at 10 µM: 87.2%
LOX IMVI
  inhibition at 10 µM: 75.9%
TK-10
  inhibition at 10 µM: 30%
OVCAR-4
  inhibition at 10 µM: 39.2%
HS 578 T
  inhibition at 10 µM: 13.6%
IGROV1
  inhibition at 10 µM: 16.6%
NCI/ADR-RES
  inhibition at 10 µM: 10.6%
OVCAR-5
  inhibition at 10 µM: 10.4%
A498
  inhibition at 10 µM: 4.82%
NCI-H322M
  inhibition at 10 µM: 18.1%
U251
  inhibition at 10 µM: 68.2%
PC-3
  inhibition at 10 µM: 17.1%
SF-539
  inhibition at 10 µM: 14.8%
MDA-MB-435
  inhibition at 10 µM: 14.5%
SK-MEL-5
  inhibition at 10 µM: 30.6%
SK-MEL-28
  inhibition at 10 µM: 13.3%
CCRF-CEM
  inhibition at 10 µM: 62.1%
NCI-H460
  inhibition at 10 µM: 23.4%
SK-OV-3
  inhibition at 10 µM: -4.46%
RXF 393
  inhibition at 10 µM: 38.5%
NCI-H522
  inhibition at 10 µM: 138%
SF-295
  inhibition at 10 µM: 12.6%
HOP-92
  inhibition at 10 µM: 25.8%
786-0
  inhibition at 10 µM: 31.8%
NCI-H226
  inhibition at 10 µM: 28.2%
HOP-62
  inhibition at 10 µM: 24.3%
SR
  inhibition at 10 µM: 98.1%
UACC-62
  inhibition at 10 µM: 45.2%
SNB-19
  inhibition at 10 µM: 25.7%
MDA-MB-468
  inhibition at 10 µM: 83.2%
HL-60(TB)
  inhibition at 10 µM: 85.4%
HT29
  inhibition at 10 µM: 63.2%
BT-549
  inhibition at 10 µM: 22.9%
COLO 205
  inhibition at 10 µM: 29.2%
MALME-3M
  inhibition at 10 µM: 37.8%
M14
  inhibition at 10 µM: 24.5%
MOLT-4
  inhibition at 10 µM: 61.1%

## CC(=O)Nc1ccc(CNc2cccc(C(=O)/C=C/c3c[nH]cn3)c2)cc1 [Compound 5l, (E)-N-(4-(((3–(3-(1H-imidazol-4-yl)acryloyl)phenyl)amino)methyl)phenyl)acetamide]
A549/ATCC
  inhibition at 10 µM: 7.54%
SF-268
  inhibition at 10 µM: 19.4%
SW-620
  inhibition at 10 µM: 24.8%
DU-145
  inhibition at 10 µM: 11.1%
K-562
  inhibition at 10 µM: 80.8%
LOX IMVI
  inhibition at 10 µM: 45.3%
TK-10
  inhibition at 10 µM: 12.9%
OVCAR-4
  inhibition at 10 µM: 17.3%
HS 578 T
  inhibition at 10 µM: 7.6%
IGROV1
  inhibition at 10 µM: 8.09%
NCI/ADR-RES
  inhibition at 10 µM: -1.58%
OVCAR-5
  inhibition at 10 µM: 5.08%
A498
  inhibition at 10 µM: 11.1%
NCI-H322M
  inhibition at 10 µM: 12.8%
U251
  inhibition at 10 µM: 48.3%
PC-3
  inhibition at 10 µM: 7.64%
SF-539
  inhibition at 10 µM: 14.1%
MDA-MB-435
  inhibition at 10 µM: 11%
SK-MEL-5
  inhibition at 10 µM: 16%
SK-MEL-28
  inhibition at 10 µM: 13.4%
CCRF-CEM
  inhibition at 10 µM: 98%
NCI-H460
  inhibition at 10 µM: 4.86%
SK-OV-3
  inhibition at 10 µM: -9.94%
RXF 393
  inhibition at 10 µM: 37.7%
NCI-H522
  inhibition at 10 µM: 64.2%
SF-295
  inhibition at 10 µM: -1.21%
HOP-92
  inhibition at 10 µM: 12.3%
786-0
  inhibition at 10 µM: 11.6%
NCI-H226
  inhibition at 10 µM: 21.7%
HOP-62
  inhibition at 10 µM: 5.06%
UACC-62
  inhibition at 10 µM: 34%
SNB-19
  inhibition at 10 µM: 26.6%
MDA-MB-468
  inhibition at 10 µM: 84%
HL-60(TB)
  inhibition at 10 µM: 65.2%
HT29
  inhibition at 10 µM: 8.22%
BT-549
  inhibition at 10 µM: 34.9%
COLO 205
  inhibition at 10 µM: -8.23%
SNB-75
  inhibition at 10 µM: 11.7%
MALME-3M
  inhibition at 10 µM: 26.4%
M14
  inhibition at 10 µM: 13.5%
MOLT-4
  inhibition at 10 µM: 40.3%

## CC(=O)Nc1ccc(/C=C/C(=O)c2cccc(NCc3ccc4oc(=O)ccc4c3)c2)cc1 [Compound 5k, (E)-N-(4–(3-oxo-3–(3-(((2-oxo-2H-chromen-6-yl)methyl)amino)phenyl)prop-1-en-1-yl)phenyl)acetamide]
A549/ATCC
  inhibition at 10 µM: 21.5%
SF-268
  inhibition at 10 µM: 18.2%
SW-620
  inhibition at 10 µM: 52.2%
DU-145
  inhibition at 10 µM: 18.3%
K-562
  inhibition at 10 µM: 93.3%
LOX IMVI
  inhibition at 10 µM: 57.8%
TK-10
  inhibition at 10 µM: 25.8%
OVCAR-4
  inhibition at 10 µM: 43.9%
HS 578 T
  inhibition at 10 µM: 22.1%
IGROV1
  inhibition at 10 µM: 23.3%
NCI/ADR-RES
  inhibition at 10 µM: 68.9%
OVCAR-5
  inhibition at 10 µM: 16.8%
A498
  inhibition at 10 µM: 20.4%
NCI-H322M
  inhibition at 10 µM: 15.3%
U251
  inhibition at 10 µM: 49%
PC-3
  inhibition at 10 µM: 27.6%
SF-539
  inhibition at 10 µM: 19%
MDA-MB-435
  inhibition at 10 µM: 22.1%
SK-MEL-5
  inhibition at 10 µM: 76.3%
SK-MEL-28
  inhibition at 10 µM: 21.2%
CCRF-CEM
  inhibition at 10 µM: 87.9%
NCI-H460
  inhibition at 10 µM: 22.7%
SK-OV-3
  inhibition at 10 µM: 3.88%
RXF 393
  inhibition at 10 µM: 18%
NCI-H522
  inhibition at 10 µM: 36.3%
SF-295
  inhibition at 10 µM: 36.8%
HOP-92
  inhibition at 10 µM: 3.27%
786-0
  inhibition at 10 µM: 24.2%
NCI-H226
  inhibition at 10 µM: 35.7%
HOP-62
  inhibition at 10 µM: 10.8%
UACC-62
  inhibition at 10 µM: 67.5%
SNB-19
  inhibition at 10 µM: 38.8%
MDA-MB-468
  inhibition at 10 µM: 72.9%
HL-60(TB)
  inhibition at 10 µM: 59%
HT29
  inhibition at 10 µM: 15.6%
BT-549
  inhibition at 10 µM: 55.8%
COLO 205
  inhibition at 10 µM: -13.2%
SNB-75
  inhibition at 10 µM: 25.4%
MALME-3M
  inhibition at 10 µM: 37.8%
M14
  inhibition at 10 µM: 30.6%
MOLT-4
  inhibition at 10 µM: 84.2%
